Results on one substance are retold here after patent US20030180396A1, “Method of effecting phosphorylation in eucaryotic cells using thiamine triphosphate” (INSTITUT PASTEUR, priority 1999, published 2003).

pIC50, pKd: −log10 of the molar value. Where two headings read alike, the source gives them in different places.

The pIC50 is −log10 of the IC50, conventionally taken in molar units. Broadly, the pKd is the Kd on a negative log10 scale, so that one unit is a factor of ten.

The subject of assay [1] is endogenous protein kinase A (PKA). Kind of assay: ATP-dependent phosphorylation of 43K rapsyn in nAChR-rich postsynaptic membranes. The class given is biochemical, Torpedo marmorata. As to the method:
(§1) nAChR-rich postsynaptic membranes (nAChR-membranes) were prepared from electric organs excised from freshly killed Torpedo marmorata (T.m.) (Biologie Marine, Arcachon) (3, 16).
(§2) [γ-^32P]-TTP (^32P-TTP) was synthesized (27). nAChR-membranes were phosphorylated with (7-8000 Ci/mol) ^32P-TTP or ^32P-ATP in 50 mM Tris-HCl pH 7.5, 5-15 mM MgCl2, 0.08% CHAPS, inhibitors of proteases at 4°-20° C. for 60-90 minutes. […] Coomassie blue staining was performed when necessary. Where specified, nAChR-membranes were treated with 5-20 mM diethylpyrocarbonate (DEPC.) (28) in 50 mM Na phosphate buffer pH 6.0 and 7.4 (20 min, 16° C.), prior to incubation with ^32P-TTP.

Assay [2] relates to TTP-dependent kinase(s) (TTP-kinase, TTP-43K-kinase). Kind of assay: TTP-dependent phosphorylation of 43K rapsyn by endogenous kinase(s) in nAChR-rich postsynaptic membranes. As to conditions: for pKd: read-out: KD (apparent dissociation constant) of 43K rapsyn phosphorylation. Type of assay: biochemical, Torpedo marmorata. The protocol:
as §1, §2
A purified extract containing the kinase responsible for the TTP dependent phosphorylation of histidine residues on rapsyn, is preincubated with increasing concentration of products inhibiting the enzymatic activity of said kinase (FIG. 3A).

The test system of the next assay is mouse brain membranes. The note with it: FIG. 8.

For the substance thiamine triphosphate [TTP], the “effect on 32P-ATP-dependent 43K rapsyn phosphorylation (in words)” value in assay [1] is recorded as “specifically inhibited”. In addition, the “effect on TTP-dependent phosphorylation of 43K rapsyn / TTP-kinase activity (in words)” value in assay [2] is “specifically inhibited”. The negative-log IC50 (pIC50) in assay [2] (FIG. 3A, preincubation with cold triphosphate, read-out: IC50, inhibition of TTP-dependent phosphorylation of 43K rapsyn) is approximately 4.40. Further, the pKd in assay [2] (FIG. 3C, dose dependent and saturable) was 5.00 to 5.30; in assay [2] (one membrane preparation) it was approximately 4.60. The “proteins phosphorylated in mouse brain membranes” value in the assay with mouse brain membranes is given as “phosphorylated very few”.
